# Results published in ChEMBL document CHEMBL4020776, “Stabilizing HDAC11 with SAHA to assay slow-binding benzamide inhibitors” (Bioorg Med Chem Lett, 2017).
# Tests used:
# [1] = target: T1, Histone deacetylase 11 (Homo sapiens) (UniProt Q96DB2); assay: (§1) Inhibition of recombinant C-terminal His-tagged HDAC11 (unknown origin) expressed in baculovirus infected Sf9 cells at 2 uM using Ac-Arg-Gly-Lys(Ac)-AMC as substrate pretreated for 3 hrs followed by substrate addition after 30 mins by fluorometric method relative to control
# T1 sequence (whole entry): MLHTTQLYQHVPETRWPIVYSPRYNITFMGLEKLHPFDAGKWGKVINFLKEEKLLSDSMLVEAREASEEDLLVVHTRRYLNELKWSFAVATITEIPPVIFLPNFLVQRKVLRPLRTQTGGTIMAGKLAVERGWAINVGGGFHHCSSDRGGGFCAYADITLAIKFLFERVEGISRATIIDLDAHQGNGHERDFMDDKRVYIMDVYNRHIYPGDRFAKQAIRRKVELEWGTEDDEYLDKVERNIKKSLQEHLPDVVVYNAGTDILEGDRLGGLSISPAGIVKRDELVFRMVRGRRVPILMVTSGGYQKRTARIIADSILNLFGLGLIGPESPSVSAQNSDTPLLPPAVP
# [2] = target: T1, Histone deacetylase 11 (Homo sapiens); assay: as §1, with “mins in presence of 0.2 uM SAHA” for “mins”
# Histone deacetylase 11 [3] = target: T2, Histone deacetylase 11 (Homo sapiens, UniProt Q96DB2); assay: Inhibition of recombinant C-terminal His-tagged HDAC11 (unknown origin) expressed in baculovirus infected Sf9 cells using Ac-Arg-Gly-Lys(Ac)-AMC as substrate pretreated for 3 hrs followed by substrate addition after 30 mins by fluorometric method
# T2 sequence (Q96DB2 whole entry): T1 sequence (whole entry)
# [4] = target: T1, Histone deacetylase 11 (Homo sapiens); assay: Inhibition of recombinant C-terminal His-tagged HDAC11 (unknown origin) expressed in baculovirus infected Sf9 cells at 5 uM using Ac-Arg-Gly-Lys(Ac)-AMC as substrate pretreated followed by substrate addition after 30 mins by fluorometric method; conditions: TDE = time-dependent effect
# Histone deacetylase 11 [5] = target: T2, Histone deacetylase 11; assay: Inhibition of recombinant C-terminal His-tagged HDAC11 (unknown origin) expressed in baculovirus infected Sf9 cells using Ac-Arg-Gly-Lys(Ac)-AMC as substrate pretreated for 3 hrs followed by substrate addition after 30 mins in presence of 0.2 uM SAHA by fluorometric method
Structure (SMILES),inhibition [1] [%],inhibition [2] [%],IC50 (Histone deacetylase 11 [3]) [nM],inhibition [4],IC50 (Histone deacetylase 11 [5]) [nM]
Nc1ccccc1NC(=O)/C=C/c1cn([C@@H]2C[C@@H](C(=O)O)N(Cc3ccccc3)C2)nn1,< 0,< 10,–,–,–
Nc1ccccc1NC(=O)/C=C/c1cn([C@H]2C[C@@H](CO)N(Cc3ccccc3)C2)nn1,31,36,2140,–,–
Nc1ccccc1NC(=O)/C=C/c1cn([C@@H]2C[C@H](CO)N(Cc3ccccc3)C2)nn1,< 10,14,–,–,–
Nc1ccccc1NC(=O)/C=C/c1cn([C@@H]2C[C@@H](CO)N(CCc3ccccc3)C2)nn1,–,< 10,–,–,–
Nc1ccccc1NC(=O)/C=C/c1cn([C@H]2C[C@H](CO)N(Cc3ccccc3)C2)nn1,< 0,14,–,–,–
Nc1ccccc1NC(=O)/C=C/c1cn([C@@H]2C[C@H](CO)N(CCCc3ccccc3)C2)nn1,< 0,12,–,–,–
Nc1ccccc1NC(=O)/C=C/c1cn([C@H]2C[C@@H](CO)N(CCCc3ccccc3)C2)nn1,< 0,19,–,–,–
Nc1ccccc1NC(=O)/C=C/c1cn([C@@H]2C[C@@H](CO)N(CCCc3ccccc3)C2)nn1,< 10,13,–,–,–
Nc1ccccc1NC(=O)/C=C/c1cn([C@@H]2C[C@H](C(=O)O)N(Cc3ccccc3)C2)nn1,–,< 10,–,–,–
Nc1ccccc1NC(=O)/C=C/c1cn([C@@H]2C[C@@H](CO)N(Cc3ccccc3)C2)nn1,< 10,22,–,–,–
Nc1ccccc1NC(=O)/C=C/c1cn([C@@H]2C[C@H](CO)N(CCc3ccccc3)C2)nn1,< 0,< 10,–,–,–
Nc1ccccc1NC(=O)/C=C/c1cn([C@H]2C[C@@H](CO)N(CCc3ccccc3)C2)nn1,< 10,20,–,–,–
Nc1ccccc1NC(=O)/C=C/c1cn([C@H]2C[C@@H](C(=O)O)N(Cc3ccccc3)C2)nn1,< 0,< 10,–,–,–
Nc1ccccc1NC(=O)c1ccc(CNC(=O)OCc2cccnc2)cc1 [ENTINOSTAT],67,59,900,Tde,1300
Nc1ccccc1NC(=O)/C=C/c1cn([C@H]2C[C@H](CO)N(CCCc3ccccc3)C2)nn1,< 10,16,–,–,–
Nc1ccccc1NC(=O)/C=C/c1cn([C@H]2C[C@H](CO)N(CCc3ccccc3)C2)nn1,< 10,< 10,–,–,–
Nc1ccccc1NC(=O)/C=C/c1cn([C@H]2C[C@H](C(=O)O)N(Cc3ccccc3)C2)nn1,12,< 10,–,–,–

# Second part, the molecule after the results:
inhibition [1] [%],inhibition [2] [%],IC50 (Histone deacetylase 11 [3]) [nM],inhibition [4],IC50 (Histone deacetylase 11 [5]) [nM],Structure (SMILES)
< 10,< 10,–,–,–,Nc1ccccc1NC(=O)/C=C/c1cn([C@@H]2C[C@@H](C(=O)O)N(CCCc3ccccc3)C2)nn1
< 0,< 10,–,–,–,Nc1ccccc1NC(=O)/C=C/c1cn([C@@H]2C[C@H](C(=O)O)N(CCc3ccccc3)C2)nn1
< 0,< 10,–,–,–,Nc1ccccc1NC(=O)/C=C/c1cn([C@H]2C[C@H](C(=O)O)N(CCc3ccccc3)C2)nn1
< 0,< 10,–,–,–,Nc1ccccc1NC(=O)/C=C/c1cn([C@H]2C[C@@H](C(=O)O)N(CCCc3ccccc3)C2)nn1
< 0,< 10,–,–,–,Nc1ccccc1NC(=O)/C=C/c1cn([C@H]2C[C@H](C(=O)O)N(CCCc3ccccc3)C2)nn1
< 10,< 10,–,–,–,Nc1ccccc1NC(=O)/C=C/c1cn([C@@H]2C[C@H](C(=O)O)N(CCCc3ccccc3)C2)nn1
< 10,< 10,–,–,–,Nc1ccccc1NC(=O)/C=C/c1cn([C@@H]2C[C@@H](C(=O)O)N(CCc3ccccc3)C2)nn1
–,< 10,–,–,–,Nc1ccccc1NC(=O)/C=C/c1cn([C@H]2C[C@@H](C(=O)O)N(CCc3ccccc3)C2)nn1
